{"source": "patent US20110300167A1", "about": "“CXCR5 RECEPTOR COMPOUNDS” (priority 2008, published 2011)", "type_in_all_cases": "cell-based", "key": {"CXCR5 [1]": {"molecular_target": "T1, CXCR5 (Homo sapiens, UniProt P32302)", "T1 sequence (P32302 1-372)": "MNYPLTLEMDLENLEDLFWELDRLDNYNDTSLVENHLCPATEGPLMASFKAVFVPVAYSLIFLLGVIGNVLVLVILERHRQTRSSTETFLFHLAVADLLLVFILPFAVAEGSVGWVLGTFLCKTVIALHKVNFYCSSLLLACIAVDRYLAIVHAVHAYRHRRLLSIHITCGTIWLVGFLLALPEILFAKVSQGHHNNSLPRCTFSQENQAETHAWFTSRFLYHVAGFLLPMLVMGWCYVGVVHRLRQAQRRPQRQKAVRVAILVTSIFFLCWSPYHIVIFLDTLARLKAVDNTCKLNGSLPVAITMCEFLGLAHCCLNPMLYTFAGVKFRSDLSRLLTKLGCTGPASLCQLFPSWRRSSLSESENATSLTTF", "test": "HTRF cAMP assay, inhibition of forskolin-stimulated cAMP production in HEK293 cells expressing hCXCR5", "parameters": "expressed in transfected cells; host or cells: HEK293", "details": "HEK293 cells expressing hCXCR5, 2 doses of compound (3 uM, 0.3 uM)", "from_the_text": "HTRF (homogeneous time resolved fluorescence) is a technology developed by Cisbio Bioassays based on TR-FRET (time-resolved fluorescence resonance energy transfer). Cisbio Bioassays has developed a wide selection of HTRF-based assays compatible with whole cells, thereby enabling functional assays run under more physiological conditions. cAMP kits are based on a competitive immunoassay using cryptate-labeled anti-cAMP antibody and d2-labeled cAMP. This assay allows the measurement of increase in intracellular cAMP upon Gs-coupled receptor activation as well as decrease in forskolin stimulated increase in cAMP upon Gi-coupled receptor activation. The IP-One assays are competitive immunoassays that use cryptate-labeled anti-IP1 monoclonal antibody and d2-labeled IP1. IP1 is a relatively stable downstream metabolite of IP3, and accumulates in cells following Gq receptor activation.\nA cAMP assay was performed in the presence of Compound 14 to assess the activation of CXCR5 by the production of cAMP. HEK293 cells expressing hCXCR5 were incubated with CXCL13, and the inhibition of forskolin-stimulated cAMP production was quantified in cells in the absence and presence of Compound 14. […] This response is indicative of a reduction of decrease in forskolin-stimulated cAMP due to enhanced CXCR5 (Gi) activation."}, "CXCR5 [2]": {"molecular_target": "T1, CXCR5", "test": "β-arrestin assay (DiscoverX eXpress β-arrestin cells expressing CXCR5)", "from_the_text": "The β-arrestin assays developed by DiscoverX employed herein detect binding of a ligand to the GPCR by directly measuring β-arrestin recruitment to the GPCR independent of G-protein coupling. In this system, β-arrestin is fused to an N-terminal deletion mutant of β-gal (termed the enzyme acceptor of EA) and the GPCR of interest is fused to a smaller (42 amino acids), weakly complementing fragment. In cells that stably express these fusion proteins, ligand stimulation results in the interaction of β-arrestin and the tagged GPCR, forcing the complementation of the two β-gal fragments and resulting in the formation of a functional enzyme that converts substrate to detectable signal. In practice, eXpress β-arrestin cells expressing the receptor of interest are incubated with either compound alone (agonist mode), or compound plus native ligand (allosteric mode). A chemiluminescent substrate is then added to determine the extent of enzyme activity, and by inference, arrestin recruitment to GPCR.\nThe β-arrestin assays for CXCR5 Compound 14 were run in both agonist and allosteric modes. In agonist mode, the CXCR5-expressing eXpress β-arrestin cells were incubated with a dose curve of CXCR5 Compound 14 in the absence of CXCL13. […] In allosteric mode, Compound 14 is co-incubated with CXCL13, and the CXCR5 response of the eXpress cells is quantified."}, "CXCR5 [3]": {"molecular_target": "T1, CXCR5", "test": "Chemotaxis assay (Transwell, CXCL13 dose-response, 300.19 cells expressing CXCR5)", "details": "300.19 cells incubated with compound, compared to the vehicle control", "from_the_text": "Chemotaxis assays were utilized to determine the effect of compound on the directed migration of cells in response to chemokine. 300.19 cells that express CXCR5 were placed in the upper chamber of a Transwell chemotaxis plate (Corning) and allowed to migrate through a polycarbonate membrane to a lower chamber containing the appropriate receptor-specific ligand. To test for antagonist or potentiating activity, cells were mixed with the desired concentration of compound prior to addition to the upper chamber. Conversely, agonist activity was determined by adding compound in the bottom chamber only without endogenous chemokine. The effect of compound is quantified by several parameters, including the extent of maximum response, the shift of agonist dose-response curves, and the area under the curve. […]\nTo initiate cell migration, the assembled transwell plate was placed in a 37° C., […] incubator for a specified time interval, typically between 30 and 120 minutes. […] To quantify migrated cells, plates were thawed at 37° C. in a humidified chamber, and then a sample volume was removed from each well and mixed with an equal volume of CyQuant (Invitrogen) working solution in opaque plates. The fluorescence intensity of each well represents the DNA content and is directly proportional to cell number. […]"}}, "data": [{"substance": "Pal-HAVHAYRHRRLLS-amide [Compound 14]", "values": [{"measurement": "shift of cAMP responses to CXCL13 (inhibition of forskolin-stimulated cAMP production)", "setting": "CXCR5 [1]", "result": "shifted leftward in a dose-dependent manner"}, {"measurement": "β-arrestin recruitment response curve, allosteric mode", "setting": "CXCR5 [2]; compound co-incubated with CXCL13", "result": "left-shifted and higher maximal response curve"}, {"measurement": "β-arrestin recruitment response, agonist mode", "setting": "CXCR5 [2]; dose curve of compound in the absence of CXCL13", "result": "lack of response"}, {"measurement": "shift of the bell-shaped ligand dose-response curve (chemotaxis)", "setting": "CXCR5 [3]; CXCL13 dose-response", "result": "leftward shift"}, {"measurement": "AUC of the bell-shaped ligand dose-response curve (chemotaxis)", "setting": "CXCR5 [3]", "result": "increase"}]}]}
